From paper PMC3352823, “In Vitro and In Vivo Activity of a Palladacycle Complex on Leishmania (Leishmania) amazonensis” (PLoS Neglected Tropical Diseases, 2012)

System: T1, L. (L.) amazonensis cathepsin B
T1 construct: gene CPC; native enzyme in amastigote lysate (hamster lesion amastigotes), not purified; activity defined by cathepsin B substrate and CA074
Type: biochemical, Leishmania amazonensis
Conditions: substrate Abz-Gly-Ile-Val-Arg-Ala-Lys(Dnp)-OH 10 µM; pH 5.0, 37 °C, 2 mM DTT

## CCCNC(=O)[C@H]1O[C@@H]1C(=O)N[C@H](C(=O)N1CCC[C@H]1C(=O)O)[C@@H](C)CC [CA074]
  IC50: 700 ± 80 nM
